Reference: ChEMBL document CHEMBL4665868, “Study on the interaction between 4-(1H-indol-3-yl)-2-(p-tolyl)quinazoline-3-oxide and human serum albumin” (Bioorg Med Chem, 2020)

Legend:
Type in all cases: ADME
Albumin [1] = biological target: T1, Albumin (Homo sapiens, UniProt P02768); assay: Binding affinity to HSA […] site assessed as quenching in presence of warfarin at 0 to 100 uM after 5 mins by fluorescence based site competition assay; details: isolated protein, dose 0-100 µM
Albumin [2] = biological target: T1, Albumin; assay: Binding affinity to HSA […] site assessed as quenching in presence of digitoxin at 0 to 100 uM after 5 mins by fluorescence based site competition assay; details: isolated protein
Albumin [3] = biological target: T1, Albumin; assay: Binding affinity to HSA assessed as change in enthalpy at 298 K by Van't Hoff plot analysis; details: isolated protein
Albumin [4] = biological target: T1, Albumin; assay: Binding affinity to HSA assessed as decrease in fluorescence intensity at 100 uM at by fluorescence spectrophotometer assay; design: scale not given: the % may be the effect or the level left; details: isolated protein
Albumin [5] = biological target: T1, Albumin; assay: Binding affinity to HSA assessed as change in entropy at 298 K by Van't Hoff plot analysis; details: isolated protein
Albumin [6] = biological target: T1, Albumin; assay: Binding affinity to HSA assessed as binding constant at 300 K by fluorescence spectrophotometer assay; details: isolated protein
Albumin [7] = biological target: T1, Albumin; assay: Binding affinity to HSA assessed as binding constant at 303 K by fluorescence spectrophotometer assay; details: isolated protein
Albumin [8] = biological target: T1, Albumin; assay: Binding affinity to HSA assessed as quenching constant at 298 K by fluorescence spectrophotometer assay; details: isolated protein
Albumin [9] = biological target: T1, Albumin; assay: Binding affinity to HSA assessed as causing the change of the microenvironment of tyrosine residue by measuring red shift at 0 to 100 uM after 5 mins by fluorescence based Synchronous fluorescence spectroscopy; details: isolated protein, dose 0-100 µM
Albumin [10] = biological target: T1, Albumin; assay: Binding affinity to HSA assessed as quenching constant at 300 K by fluorescence spectrophotometer assay; details: isolated protein
Albumin [11] = biological target: T1, Albumin; assay: Binding affinity to HSA assessed as Stern-Volmer quenching constant at 300 K by fluorescence spectrophotometer assay; details: isolated protein
Albumin [12] = biological target: T1, Albumin; assay: Binding affinity to HSA assessed as Stern-Volmer quenching constant at 298 K by fluorescence spectrophotometer assay; details: isolated protein
Albumin [13] = biological target: T1, Albumin; assay: Binding affinity to HSA […] site assessed as quenching in presence of ibuprofen at 0 to 100 uM after 5 mins by fluorescence based site competition assay; details: isolated protein
Albumin [14] = biological target: T1, Albumin; assay: Binding affinity to HSA assessed as Stern-Volmer quenching constant at 303 K by fluorescence spectrophotometer assay; details: isolated protein
Albumin [15] = biological target: T1, Albumin; assay: Binding affinity to HSA assessed as quenching constant at 303 K by fluorescence spectrophotometer assay; details: isolated protein
Albumin [16] = biological target: T1, Albumin; assay: Binding affinity to HSA assessed as binding constant at 298 K by fluorescence spectrophotometer assay; details: isolated protein

T1 sequence (P02768 whole entry): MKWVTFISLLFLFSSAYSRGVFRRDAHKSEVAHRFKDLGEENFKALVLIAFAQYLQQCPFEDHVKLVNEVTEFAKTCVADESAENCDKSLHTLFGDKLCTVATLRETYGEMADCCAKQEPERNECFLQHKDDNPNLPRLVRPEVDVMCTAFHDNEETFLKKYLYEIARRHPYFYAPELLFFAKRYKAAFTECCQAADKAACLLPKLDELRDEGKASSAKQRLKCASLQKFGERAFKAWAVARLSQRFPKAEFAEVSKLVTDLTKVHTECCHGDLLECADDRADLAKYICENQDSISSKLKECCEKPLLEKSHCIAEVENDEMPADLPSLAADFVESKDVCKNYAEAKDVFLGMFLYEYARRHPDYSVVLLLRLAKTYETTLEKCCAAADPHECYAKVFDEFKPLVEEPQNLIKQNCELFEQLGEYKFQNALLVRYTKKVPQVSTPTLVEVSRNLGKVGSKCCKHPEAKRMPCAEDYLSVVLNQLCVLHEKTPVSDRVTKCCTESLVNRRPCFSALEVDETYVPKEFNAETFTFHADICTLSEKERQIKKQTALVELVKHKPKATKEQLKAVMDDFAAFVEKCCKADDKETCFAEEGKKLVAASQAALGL

For `Cc1ccc(-c2nc3ccccc3c(-c3c[nH]c4ccccc34)[n+]2[O-])cc1`, the Activity (Albumin [1]) was “Not Active”, the Activity (Albumin [2]) was “Active” and the deltaH (Albumin [3]) was 33.227 kcal/mol. For the same molecule, the Activity (Albumin [4]) was 49.2%, the deltaS (Albumin [5]) was 436 J/mol·K and the K (Albumin [6]) was 1.7 10^4L/mol. The K (Albumin [7]) was 1.03 10^4L/mol, the Kq (Albumin [8]) was 1.4 10^12L/mol.s and the Activity (Albumin [9]) was 9 nm. The Kq (Albumin [10]) was 1.39 10^12L/mol.s, the KSV (Albumin [11]) was 1.39 10^4L/mol and the KSV (Albumin [12]) was 1.4 10^4L/mol. For the same molecule, the Activity (Albumin [13]) was “Active”, the KSV (Albumin [14]) was 1.33 10^4L/mol and the Kq (Albumin [15]) was 1.33 10^12L/mol.s. The K (Albumin [16]) was 2.47 10^4L/mol.
